Source: US11026991B2, “Compositions and methods of use thereof to promote muscle growth and function” (Worlds Greatest Ingredients, LP, priority 2018, dated 2021)
Where two headings read alike, the source gives them in different places.

Settings: in vivo; for Plasma Isoleucine Concentrations After Ingestion / Plasma Leucine Concentrations After Ingestion / Plasma Lysine Concentrations After Ingestion / Plasma Methionine Concentrations After Ingestion / Plasma Phenylalanine Concentrations After Ingestion / Plasma Threonine Concentrations After Ingestion / Plasma Tryptophan Concentrations After Ingestion / Plasma Valine Concentrations After Ingestion / Total Plasma BCAA Concentrations After Ingestion / Total Plasma EAA Concentrations After Ingestion / Plasma Leucine Delta Change Relative to Baseline Values / Plasma Leucine Percent Change Relative to Baseline Values / relative increase in plasma leucine from Pre / elevation in plasma leucine relative to baseline, times greater than the other condition: male, human
Protocol: The subject came into the laboratory fasted prior to the testing days. […] On Day 1, they were randomized to consume 1 of the 2 conditions. Following, consumption of the fluid mixture (8 oz. water), plasma amino acids were measured at 30, 60, 90, and 120 minutes. A 72-hour washout took place followed by the 2nd condition following the same procedures.
The dosage used in this study was either 2 grams of di-leucine (condition Ce) or 2 grams of leucine (condition C4).

- increase in plasma lysine, times greater than the other condition: 19 ×
- increases in total EAA concentration relative to baseline (range): 9.4% to 16.3%
- plasma phenylalanine change relative to Pre values (range): −16.0% to −3.5%
- Plasma Isoleucine Concentrations After Ingestion: 45.75 nmol/L
- Plasma Leucine Concentrations After Ingestion: 92.25 nmol/L
- Plasma Lysine Concentrations After Ingestion: 121.19 nmol/L
- Plasma Methionine Concentrations After Ingestion: 18.77 nmol/L
- Plasma Phenylalanine Concentrations After Ingestion: 48.61 nmol/L
- Plasma Threonine Concentrations After Ingestion: 87.38 nmol/L
- Plasma Tryptophan Concentrations After Ingestion: 45.00 nmol/L
- Plasma Valine Concentrations After Ingestion: 230.43 nmol/L
- Total Plasma BCAA Concentrations After Ingestion: 368.43 nmol/L
- Total Plasma EAA Concentrations After Ingestion: 689.38 nmol/L
- Plasma Isoleucine Concentrations After Ingestion (30 min): 34.44 nmol/L
- Plasma Leucine Concentrations After Ingestion (30 min): 198.33 nmol/L
- Plasma Leucine Delta Change Relative to Baseline Values (30 min): 106.09 nmol/L
- Plasma Leucine Percent Change Relative to Baseline Values (30 min): 115.0%
- Plasma Lysine Concentrations After Ingestion (30 min): 135.48 nmol/L
- Plasma Methionine Concentrations After Ingestion (30 min): 16.61 nmol/L
- Plasma Phenylalanine Concentrations After Ingestion (30 min): 42.44 nmol/L
- Plasma Threonine Concentrations After Ingestion (30 min): 76.42 nmol/L
- Plasma Tryptophan Concentrations After Ingestion (30 min): 40.12 nmol/L
- Plasma Valine Concentrations After Ingestion (30 min): 210.39 nmol/L
- Total Plasma BCAA Concentrations After Ingestion (30 min): 443.16 nmol/L
- Total Plasma EAA Concentrations After Ingestion (30 min): 754.23 nmol/L
- relative increase in plasma leucine from Pre (30 min): 106.09 nmol/mL
- Plasma Isoleucine Concentrations After Ingestion (60 min): 33.30 nmol/L
- Plasma Leucine Concentrations After Ingestion (60 min): 146.70 nmol/L
- Plasma Leucine Delta Change Relative to Baseline Values (60 min): 54.45 nmol/L
- Plasma Leucine Percent Change Relative to Baseline Values (60 min): 59.0%
- Plasma Lysine Concentrations After Ingestion (60 min): 128.45 nmol/L
- Plasma Methionine Concentrations After Ingestion (60 min): 15.94 nmol/L
- Plasma Phenylalanine Concentrations After Ingestion (60 min): 40.84 nmol/L
- Plasma Threonine Concentrations After Ingestion (60 min): 75.83 nmol/L
- Plasma Tryptophan Concentrations After Ingestion (60 min): 43.54 nmol/L
- Plasma Valine Concentrations After Ingestion (60 min): 200.61 nmol/L
- Total Plasma BCAA Concentrations After Ingestion (60 min): 380.61 nmol/L
- Total Plasma EAA Concentrations After Ingestion (60 min): 685.20 nmol/L
- relative increase in plasma leucine from Pre (60 min): 54.45 nmol/mL
- Plasma Isoleucine Concentrations After Ingestion (90 min): 40.37 nmol/L
- Plasma Leucine Concentrations After Ingestion (90 min): 181.67 nmol/L
- Plasma Leucine Delta Change Relative to Baseline Values (90 min): 89.42 nmol/L
- Plasma Leucine Percent Change Relative to Baseline Values (90 min): 96.9%
- Plasma Lysine Concentrations After Ingestion (90 min): 134.15 nmol/L
- Plasma Methionine Concentrations After Ingestion (90 min): 19.30 nmol/L
- Plasma Phenylalanine Concentrations After Ingestion (90 min): 46.94 nmol/L
- Plasma Threonine Concentrations After Ingestion (90 min): 91.05 nmol/L
- Plasma Tryptophan Concentrations After Ingestion (90 min): 46.58 nmol/L
- Plasma Valine Concentrations After Ingestion (90 min): 225.20 nmol/L
- Total Plasma BCAA Concentrations After Ingestion (90 min): 447.24 nmol/L
- Total Plasma EAA Concentrations After Ingestion (90 min): 785.26 nmol/L
- elevation in plasma leucine relative to baseline, times greater than the other condition (90 min): 2.6 ×
- Plasma Isoleucine Concentrations After Ingestion (120 min): 36.47 nmol/L
- Plasma Leucine Concentrations After Ingestion (120 min): 158.84 nmol/L
- Plasma Leucine Delta Change Relative to Baseline Values (120 min): 66.59 nmol/L
- Plasma Leucine Percent Change Relative to Baseline Values (120 min): 72.2%
- Plasma Lysine Concentrations After Ingestion (120 min): 171.18 nmol/L
- Plasma Methionine Concentrations After Ingestion (120 min): 19.19 nmol/L
- Plasma Phenylalanine Concentrations After Ingestion (120 min): 45.40 nmol/L
- Plasma Threonine Concentrations After Ingestion (120 min): 90.94 nmol/L
- Plasma Tryptophan Concentrations After Ingestion (120 min): 44.81 nmol/L
- Plasma Valine Concentrations After Ingestion (120 min): 234.78 nmol/L
- Total Plasma BCAA Concentrations After Ingestion (120 min): 430.08 nmol/L
- Total Plasma EAA Concentrations After Ingestion (120 min): 801.61 nmol/L
- elevation in plasma leucine relative to baseline, times greater than the other condition (120 min): 1.5 ×
Structure (SMILES): CC(C)C[C@H](N)C(=O)O [Condition C4, leucine]
